# Source: patent EP4471048A1, “PEPTIDE INHIBITORS OF INTERLEUKIN-23 RECEPTOR” (Zealand Pharma A/S, priority 2023, dated 2024)
# pIC50, pKi: −log10 of the molar value. Like-named read-outs stand apart in the source and are kept apart here. *1 amine or outer side, *2 acyl side, *3 side chain or, on linkers, in order; H or OH if unused. Where a SMILES comes first, the peptide text is derived from it. Bridges are numbered along the chain shown (N, C = ends). [ ]: non-standard residue; d: D form. The star is where a group is joined. hAad = O=C([C@H](CCCCC(=O)[*:3])N[*:1])[*:2]; X7 = O=C(C[C@H](CCCN[*:3])N[*:2])[*:1]; 2Nal = N[C@@H](Cc1ccc2ccccc2c1)C(=O)O; AEF = NCCOc1ccc(C[C@H](N)C(=O)O)cc1; X1 = O=C(Cc1ccc(CN[*:1])cc1)[*:2]; 3Pal = N[C@@H](Cc1cccnc1)C(=O)O; αMeL = CC(C)C[C@](C)(N)C(=O)O; CH2COCH2 = O=C(C[*:1])C[*:2]; dDab = NCC[C@@H](N)C(=O)O; Pyrrolidide = C1CCN(*)C1; Dab = NCC[C@H](N)C(=O)O; X6 = O=C(CN[*:2])[*:1]
# How the values were obtained:
# human IL-23R = molecular target: T1, human IL-23R (Homo sapiens, UniProt Q5VWK5); assay: biochemical; settings: for Emax: read-out: % displacement (hIL-23R NIuc)
# T1 sequence (Q5VWK5 22-629): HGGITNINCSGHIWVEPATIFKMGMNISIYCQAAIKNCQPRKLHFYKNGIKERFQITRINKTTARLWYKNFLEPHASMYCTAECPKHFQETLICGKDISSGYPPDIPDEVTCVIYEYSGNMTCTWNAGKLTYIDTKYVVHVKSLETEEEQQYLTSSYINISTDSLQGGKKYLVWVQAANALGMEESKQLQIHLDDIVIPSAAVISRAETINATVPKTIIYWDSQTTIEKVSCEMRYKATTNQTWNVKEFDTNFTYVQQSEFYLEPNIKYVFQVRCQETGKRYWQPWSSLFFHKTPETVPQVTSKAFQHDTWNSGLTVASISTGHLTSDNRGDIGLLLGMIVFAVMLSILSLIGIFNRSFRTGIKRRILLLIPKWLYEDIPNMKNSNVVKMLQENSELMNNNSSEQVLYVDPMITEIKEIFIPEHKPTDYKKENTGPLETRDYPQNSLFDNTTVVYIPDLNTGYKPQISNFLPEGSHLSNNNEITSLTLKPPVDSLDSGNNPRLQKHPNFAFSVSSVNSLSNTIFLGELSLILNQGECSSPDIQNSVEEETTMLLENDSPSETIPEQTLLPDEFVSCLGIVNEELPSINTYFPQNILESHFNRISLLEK
# Method in brief: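 BRET displacement of a TAMRA-labelled reference compound from N-terminal Nanoluc-IL-23R fusion protein in membranes from stably transfected HEK293 cells. Incubation 2 h at room temperature, then Nanoluc substrate was added and the TAMRA/Nanoluc ratio read. IC50 and maximal displacement came from 4-parameter logistic fits.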
# [1] = molecular target: IL-23 mediated signalling (Homo sapiens, UniProt Q5VWK5); assay: Functional inhibition of IL-23 mediated STAT3 signalling (phospho-STAT3 MSD) in DB cells; type: cell-based; settings: Table 3-2, DB cells, hIL-23 at EC80; for pIC50: read-out: hIL-23 (pSTAT3) antagonist IC50; for Emax: read-out: hIL-23 (pSTAT3) antagonist % inhibition
# Excerpt: Upon binding of IL-23, the IL-23R forms a heterodimer signalling complex together with IL-12R β1, which through the JAK2/STAT3 pathway promotes phosphorylation of STAT3 to form phospho-STAT3.
# For compounds tested in this assay, the response was normalized relative to control values to calculate the IC50 and maximal inhibitory response from a concentration response curve of the compound in presence of a fixed concentration of human IL-23.
# The assay procedure was as follows. […] Following preincubation of the DB cells with inhibitor for 15 min in a cell incubator (37 °C, 5% CO2), 20 µL of the prepared 3X the EC80 of hIL-23 solution was added to each well and incubated for 90 min in a cell incubator (37 °C, 5% CO2). For some wells buffer only or IL-23 only corresponding to the EC80 was added to obtain readouts needed for normalization. To terminate the assay, the plate was spun at 1000 G for 5 min to pellet cells, the supernatant removed using an 8-channel manual pipette, and then added 50 µL/well Complete Lysis Buffer from the MSD STAT3 kit (Cat# K150SVD, Mesoscale) to the cell pellet. To completely lyse cells to release phospho-STAT3 for detection, the plate was shaken for 10 min at room temperature (500 rpm) sealed with aluminium foil and placed at -80 °C for a minimum of 15 min. Detection of the phospho-STAT3 level in the cell lysate from the individual wells was determined using the MSD STAT3 kit (Cat# K150SVD, Mesoscale) and read on a Meso QuickPlex SQ 120 plate reader (Mesoscale).
# For data analysis raw data counts from the Meso QuickPlex SQ 120 plate reader were normalized relative to the response by the EC80 of h1L-23 alone (no compound added) and the buffer level. Compound potency (IC50) and maximal inhibitory response (% inhibition) were estimated by computer-aided curve fitting using a 4-parameter logistic (4PL) nonlinear model. […] Table 3-2: hIL-23 (pSTAT3) antagonist IC50 and % inhibition
SMILES,"% displacement (hIL-23R NIuc) (human IL-23R; Table 3-1, maximal displacement of TAMRA-labelled peptide) [%]",hIL-23 (pSTAT3) antagonist % inhibition ([1]; maximal inhibitory response) [%],% displacement (hIL-23R NIuc) (human IL-23R) [%],pIC50 (human IL-23R),pKi (human IL-23R),pIC50 [1],Emax ([1]; maximal inhibitory response) [%],Emax (human IL-23R) [%]
"CC(C)C[C@]1(C)NC(=O)[C@H](Cc2ccc3ccccc3c2)NC(=O)[C@H](Cc2ccc(OCCN)cc2)NC(=O)[C@@H]2CCC(=O)N[C@H](CCNC(=O)CCCC[C@@H](C(=O)N[C@@H](CCN)C(=O)N[C@@H](Cc3cccnc3)C(N)=O)NC1=O)C(=O)N[C@@H]([C@@H](C)O)C(=O)N[C@@H](C(C)C)C(=O)N[C@@H](Cc1c[nH]c3ccccc13)C(=O)N[C@@H](CCC(N)=O)C(=O)N2 [Compound 7, [{d}Dab](1c)(6c)^†TVWQE(6c)[Y(2-aminoethoxy)][2-Nal][2-Me-Leu][2-Amino-6-carboxyhexanoyl](1 c)[Dab][3-(3-Pyridyl)-Ala]-[NH2]] ([dDab]TVWQE[AEF][2Nal][αMeL][hAad][Dab][3Pal]-NH2; lactam 1-10, N-6)",,,104,10.77,,,99,
"CNC(=O)[C@H](Cc1cccnc1)NC(=O)[C@H](CCN)NC(=O)[C@@H]1CCC(=O)NCC(=O)NCCCC[C@@H]2NC(=O)CC[C@H](NC(=O)[C@H](CCC(N)=O)NC(=O)[C@H](Cc3c[nH]c4ccccc34)NC2=O)C(=O)N[C@@H](Cc2ccc(OCCN)cc2)C(=O)N[C@@H](Cc2ccc3ccccc3c2)C(=O)N[C@@](C)(CC(C)C)C(=O)N1 [Compound 46, [K(G)](1c)(6c)^†WQE(6c)[Y(2-aminoethoxy)][2-Nal][2-Me-Leu]E(1c)[Dab][3-(3-Pyridyl)-Ala]-[NHMe]] (KWQE[AEF][2Nal][αMeL]E[Dab][3Pal]-NHMe; linker 1-8 via X6; lactam N-4)",,,,8.14,,,102,104
"CC(C)C[C@]1(C)NC(=O)[C@H](Cc2ccc3ccccc3c2)NC(=O)[C@H](Cc2ccc(OCCN)cc2)NC(=O)[C@@H]2CCC(=O)N[C@@H](CCCNC(=O)CC[C@@H](C(=O)N[C@@H](CCN)C(=O)N[C@@H](Cc3cccnc3)C(N)=O)NC1=O)CC(=O)N[C@@H]([C@@H](C)O)C(=O)N[C@@H](C(C)C)C(=O)N[C@@H](Cc1c[nH]c3ccccc13)C(=O)N[C@@H](CCC(N)=O)C(=O)N2 [Compound 12, [bLys](1c)(6c)^†TVWQE(6c)[Y(2-aminoethoxy)][2-Nal][2-Me-Leu]E(1c)[Dab][3-(3-Pyridyl)-Ala]-[NH2]] (TVWQE[AEF][2Nal][αMeL]E[Dab][3Pal]-NH2; linker N-5-9 via X7)",,,104,,,,100,
"CC(C)C[C@]1(C)NC(=O)[C@H](Cc2ccc3ccccc3c2)NC(=O)[C@H](Cc2ccc(OCCN)cc2)NC(=O)[C@@H]2CC(=O)N[C@H](CCCCNC(=O)CC[C@@H](C(=O)N[C@@H](CCN)C(=O)N[C@@H](Cc3cccnc3)C(N)=O)NC1=O)C(=O)N[C@@H]([C@@H](C)O)C(=O)N[C@@H](C(C)C)C(=O)N[C@@H](Cc1c[nH]c3ccccc13)C(=O)N[C@@H](CCC(N)=O)C(=O)N2 [Compound 3, [{d}K](1c)(6c)^†TVWQD(6c)[Y(2-aminoethoxy)][2-Nal][2-Me-Leu]E(1c)[Dab][3-(3-Pyridyl)-Ala]-[NH2]] ([dK]TVWQD[AEF][2Nal][αMeL]E[Dab][3Pal]-NH2; lactam 1-10, N-6)",,,,10.04,,8.82,101,105
"CNC(=O)[C@H](Cc1cccnc1)NC(=O)[C@H](CCN)NC(=O)[C@@H]1CCC(=O)NCCCC[C@@H]2NC(=O)CC[C@H](NC(=O)[C@H](CCC(N)=O)NC(=O)[C@H](Cc3c[nH]c4ccccc34)NC(=O)[C@H]([C@@H](C)O)NC2=O)C(=O)N[C@@H](Cc2ccc(OCCN)cc2)C(=O)N[C@@H](Cc2ccc3ccccc3c2)C(=O)N[C@@](C)(CC(C)C)C(=O)N1 [Compound 36, K(1c)(6c)^†TWQE(6c)[Y(2-aminoethoxy)][2-Nal][2-Me-Leu]E(1c)[Dab][3-(3-Pyridyl)-Ala]-[NHMe]] (KTWQE[AEF][2Nal][αMeL]E[Dab][3Pal]-NHMe; lactam 1-9, N-5)",,,,9.54,,,97,100

# The remaining lines, values ahead:
"% displacement (hIL-23R NIuc) (human IL-23R; Table 3-1, maximal displacement of TAMRA-labelled peptide) [%]",hIL-23 (pSTAT3) antagonist % inhibition ([1]; maximal inhibitory response) [%],% displacement (hIL-23R NIuc) (human IL-23R) [%],pIC50 (human IL-23R),pKi (human IL-23R),pIC50 [1],Emax ([1]; maximal inhibitory response) [%],Emax (human IL-23R) [%],SMILES
105,98,,,,,,,"CC(C)C[C@]1(C)NC(=O)[C@H](Cc2ccc3ccccc3c2)NC(=O)[C@H](Cc2ccc(OCCN)cc2)NC(=O)[C@@H]2CCNC(=O)CC[C@H](NC(=O)[C@H](CO)NC(=O)Cc3ccc(cc3)CNC(=O)CC[C@@H](C(=O)N[C@@H](CCN)C(N)=O)NC1=O)C(=O)N[C@@H](Cc1c[nH]c3ccccc13)C(=O)N[C@@H](CCC(=O)N1CCCC1)C(=O)N2 [Ref 146, [4-Aminomethyl-phenylacetyl](1c)*SE(2c)W[Q(pyrrolidin)][Dab](2c)[Y(2-aminoethoxy)][2-Nal][2-Me-Leu]E(1c)[Dab]-[NH2], reference compound] ([X1]SEWE(Pyrrolidide)[Dab][AEF][2Nal][αMeL]E[Dab]-NH2; lactam 3-6, N-10)"
,,103,8.46,8.55,7.74,97,,"CC(=O)N[C@H]1CCCCNC(=O)CC[C@@H](C(=O)N[C@@H](CCCNC(=N)N)C(N)=O)NC(=O)[C@H](CC(C)C)NC(=O)[C@H](Cc2ccc3ccccc3c2)NC(=O)[C@H](Cc2c[nH]c3ccccc23)NC(=O)[C@@H]2CSCC(=O)CSC[C@H](NC(=O)[C@H](CO)NC1=O)C(=O)N[C@@H](Cc1c[nH]c3ccccc13)C(=O)N[C@@H](CCC(N)=O)C(=O)N2 [Ref 18, [Ac]-K(1c)SC(2a)WQC(2a)W[2-Nal]LE(1c)R-[NH2], reference compound] (HELM PEPTIDE1{[ac].K.S.C.W.Q.C.W.[O=C([C@H](Cc1ccc2ccccc2c1)N[*:1])[*:2]].L.E.R.[am]}|CHEM1{[O=C(C[*:1])C[*:2]]}$PEPTIDE1,PEPTIDE1,2:R3-11:R3|PEPTIDE1,CHEM1,4:R3-1:R1|PEPTIDE1,CHEM1,7:R3-1:R2$$$V2.0)"
,,100,10.24,10.32,8.11,103,,"CC(C)C[C@]1(C)NC(=O)[C@H](Cc2ccc3ccccc3c2)NC(=O)[C@H](Cc2ccc(OCCN)cc2)NC(=O)[C@@H]2CSCC(=O)CSC[C@H](NC(=O)[C@H](CO)NC(=O)Cc3ccc(cc3)CNC(=O)CC[C@@H](C(=O)N[C@@H](CCCNC(=N)N)C(N)=O)NC1=O)C(=O)N[C@@H](Cc1c[nH]c3ccccc13)C(=O)N[C@@H](CCC(N)=O)C(=O)N2 [Ref 52, [4-Aminomethyl-phenylacetyl](1c)*SC(2a)WQC(2a)[Y(2-aminoethoxy)][2-Nal][2-Me-Leu]E(1c)R-[NH2], reference compound] ([X1]SCWQC[AEF][2Nal][αMeL]ER-NH2; linker 3-6 via CH2COCH2; lactam N-10)"
,,101,9.14,9.22,7.68,98,,"CC(C)C[C@]1(C)NC(=O)[C@H](Cc2ccc3ccccc3c2)NC(=O)[C@H](Cc2ccc(OCCN)cc2)NC(=O)[C@@H]2CCNC(=O)CC[C@H](NC(=O)[C@H](CO)NC(=O)Cc3ccc(cc3)CNC(=O)CC[C@@H](C(=O)N[C@@H](CCN)C(N)=O)NC1=O)C(=O)N[C@@H](Cc1c[nH]c3ccccc13)C(=O)N[C@@H](CCC(N)=O)C(=O)N2 [Ref 125, [4-Aminomethyl-phenylacetyl](1c)*SE(2c)WQ[Dab](2c)[Y(2-aminoethoxy)][2-Nal][2-Me-Leu]E(1c)[Dab]-[NH2], reference compound]"
